In patent US5441947A, “Methods of inhibiting vascular restenosis” (Eli Lilly and Company, priority 1993, dated 1995):
Several values for one entry are separate records, joined by “and”; a condition that tells them apart may be missing. Equal values may be shown once.

B1: PDGF: PDGF-BB at 10 ng/ml as an inducer, or chemoattractant (protein, UniProt P01127 82-190, looked up)
Platelet-derived growth …: SLGSLTIAEPAMIAECKTRTEVFEISRRLIDRTNANFLVWPPCVEVQRCSGCCNNRNVQCRPTQVQLRPVQVRKIEIVRKKPIFKKATVTLEDHLACKCETVAAARPVT

Tested on: smooth muscle cell chemotaxis
Assay: smooth muscle cell chemotaxis (96 well chemotaxis chamber, PDGF-BB as inducer)
Type: cell-based
Details: four hours; for Degree of Cell Migration: absorbance; for IC50: 4 h, PDGF-BB 10 ng/ml as inducer, 37° C., read-out: half maximal inhibiting concentrations (IC50) to inhibit smooth muscle cell chemotaxis
Experimental: Compounds of the invention were tested for impact on smooth muscle cell chemotaxis using a model AB96 Neuro Probe® 96 well chemotaxis chaser. […] This chamber is available from Neuro Probe, Inc., P.O. Box 400, Cabin John, Md.
The chamber consists of a top plate, a bottom plate, a gasket and a polyvinyl pyrrolidone-free polycarbonate filter. […] The 8 μm pore filter is soaked in 0.5N acetic acid overnight and coated with collagen at 100 μg/ml in 0.1N acetic acid for 2 days. The filter is then dried in a hood. The filter is then installed on the bottom plate, followed by the gasket. The top plate is then placed on the gasket, forming the top wells. In the top wells, smooth muscle cells are placed with the compounds to be tested at specified concentrations in around 225 μl volume. The smooth muscle cells are plated at a density of 0.5×10^6 cells/mi. The chamber is incubated at 37° C., 5% CO2 for four hours, and at the end of this time the upper well-cells are scraped off. The lower well cells are fixed, stained, and the absorbance is read.

[1] = 0.1 μm compound, PDGF-BB 10 ng/ml
[2] = 10 μm compound, PDGF-BB 10 ng/ml
[3] = 0.03 μM compound, PDGF-BB 10 ng/ml
[4] = 0.3 μm compound, PDGF-BB 10 ng/ml

Molecule	IC50	Degree of Cell Migration [1]	further results
COc1cc2c(c(OC)c1OC)-c1ccc(OC)c(=O)cc1[C@@H](NC(C)=O)CC2 [Colchicine, reference compound]	–	–	Degree of Cell Migration (1 μm compound, PDGF-BB 10 ng/ml): 0.000
COC[C@H]1OC(=O)c2coc3c2[C@@]1(C)C1=CC[C@]2(C)C(=O)CC[C@H]2C1C3=O (stereo partly drawn) [II, Δ9,11-dehydrodesacetoxywortmannin]	200 nM	–	–
COCC1OC(=O)c2coc3c2C1(C)C1=C(C3=O)C2CCC(O)C2(C)CC1OC(C)=O (stereo not drawn) [IIIA, 17α-Dihydrowortmannin]	20 nM	-0.010	Degree of Cell Migration (0.01 μm compound, PDGF-BB 10 ng/ml): 0.033
Cc1c2c(c(O)c3occ(C(=O)O)c13)[C@@H]1CCC(=O)[C@@]1(C)C=C2 [IVa, opened A-ring acid of wortmannin]	> 10000 nM	–	Degree of Cell Migration [2]: 0.04
COC(=O)c1coc2c(O)c3c(c(C)c12)C=C[C@]1(C)C(=O)CC[C@@H]31 [IVb, opened A-ring methyl ester of wortmannin]	10000 nM	–	Degree of Cell Migration [2]: 0.026
COCC1OC(=O)c2coc3c2C1(C)C1=C(C3=O)C2CCC(=O)C2(C)CC1OC(C)=O (stereo not drawn) [Ia, wortmannin]	30 nM	0.006	Degree of Cell Migration [3]: 0.020; Degree of Cell Migration [4]: -0.001
COC[C@H]1OC(=O)c2coc3c2[C@@]1(C)C1=C(C3=O)[C@@H]2CCC(=O)[C@@]2(C)CC1 [Ib, 11-desacetoxywortmannin]	200 nM	0.040 and 0.028	Degree of Cell Migration [3]: 0.044 and 0.036; Degree of Cell Migration [4]: 0.015
B1	–	–	Degree of Cell Migration (PDGF 10 ng/ml alone (inducer control)): 0.046
